This is an account of results in patent US9370503B1, “Compounds for treating ocular diseases” (priority 2015, dated 2016).

One experiment deals with ARPE-19 cells. In words: NaN3-induced injury in ARPE-19 cells (MTT). Type of experiment: cell-based, human. Particulars: 0.03 μg/ml to 10 μg/ml compound, 72 hours. Here is the method:
ARPE-19 cells were grown in DMEM/F12 medium supplemented with 10% FBS, 100 units/ml penicillin G, and 100 μg/ml streptomycin sulfate. HUVECs were grown in vascular cell basal medium supplemented with endothelial cell growth kit. Cells were incubated in a humidified incubator at 37° C. under 5% CO2 and 95% air.
MTT assay was used to measure the viability of ARPE-19 cells and HUVECs. 2×10^5 ARPE-19 cells or 5×10^4 HUVECs were seeded in 96-well plates (100 μl/well) and allowed to grow overnight. Negative control was prepared by adding 100 μl medium without cells. The cells were then treated with fresh medium with a compound of Formula (II) (“(II)”) (0.03, 0.1, 0.3, 1, 3 and 10 μg/ml) and/or oxidants (NaIO3, H2O2, t-BHP and NaN3) for 12, 24, or 72 hours (200 μl/well). The vehicle control group was treated with vehicle. 20 μl MTT (5 mg/ml) was added to wells, and incubated for another 4 h. After incubation, the medium was discarded and 100 μl DMSO was added to solubilize formazan produced from MTT by the viable cells. Absorbance was measured at 570 nm using a microplate reader (Bio-Rad Laboratories, Inc., CA). Cells viability was calculated according to the following formula: Viability of cells (%)=(absorbance in tested sample−absorbance in negative control)/(absorbance in vehicle control−absorbance in negative control)×100%.

Experiment [1] relates to Ocular Hypertensive Rabbit. Description: Ocular blood flow in ocular hypertensive rabbit (colored microspheres). In kind it is in vivo. The settings on record: 1% topical instillation, 30 minutes after drug instillation. Here is the method: 0.5% alcaine was purchased commercially. A 20% sterilized hypertonic saline solution was prepared in the laboratory. Colored microspheres were purchased from E-Z Trac (Los Angeles, Calif.). The colored microspheres were diluted with saline containing 0.01% (v/v) of Tween 80 to prevent the microspheres from sticking together. Two million microspheres in 0.4 ml were injected at each time point.
Female New Zealand white rabbits weighing 2.-3.0 kg, were purchased commercially. Animal care and treatment were followed by the institutional guidelines.
Rabbits were anesthetized with 35 mg/kg ketamine and 5 mg/kg xylazine by intramuscular injection. Half of the initial dose was given every one hour thereafter. The left ventricle was cannulated through the right carotid artery for injection of colored microspheres and the femoral artery was cannulated for collection of blood samples. The left eye was treated with one drop of proparacaine hydrochloride ophthalmic solution (Bausch & Lomb, Inc., Tampa, Fla., USA). The needle was inserted directly into the anterior chamber of the left eye, which was connected to the 40 mmHg saline manometer. The ocular hypertensive model reduced the ocular blood flow to approximately one third of the normal valued. 50 μl of 10 g/l flavone or vehicle (30% HP-β-CD solution) was instilled topically to the left eye 30 minutes after the ocular hypertensive model was built. The ocular blood flow was measured by colored microspheres at 0, 30, 60 and 120 minutes after treatment with the compounds or vehicle. At each time point, 2 million microspheres were injected as a reference, and blood samples were taken from the femoral artery for exactly one minute following injection of the microspheres. The blood sample was collected in a heparinized tube and the volume was recorded. The rabbits were euthanized with an injection of 100 mg/kg pentobarbital sodium after the last blood sampling. The left eyes were enucleated and dissected into the iris, ciliary body, retina and choroid. All the tissues were weighed.
The details of sample processing and microsphere counting were provided by E-Z Trac (Los Angeles, Calif., USA). In brief, the blood hemolysis reagent was added to the microfuge tubes with the blood sample, then vortexed and centrifuged for 30 minutes at 6000 rpm. The supernatant was removed, and then tissue/blood digest reagents I and II were added. The tubes were capped, vortexed, and centrifuged for 30 minutes. […] The number of microspheres was counted by the hemocytometer under the microscope. […] The protocol thereafter was the same as that used to process the blood samples, and the microspheres were counted.
The blood flow of each tissue at a certain time point was calculated according to the following formula: Qm=(Cm×Qr)/Cr. […]

In the case of `CC(C)=CCC/C(C)=C/Cc1c([C@@H]2CC(=O)c3c(cc(O)c(CC=C(C)C)c3O)O2)ccc(O)c1O` [Formula (II)], the “effect on NaN3-induced injury in ARPE-19 cells” value with ARPE-19 cells is listed as “significantly reversed”. In addition, in experiment [1], the “blood flow in choroid” value is on record as “significantly increased” and the “blood flow in iris” value is “significantly increased”.
